Assay results from patent US20140213513A1 (Sanofi, priority 2012, published 2014).
Values after ≈ are worked out from the molar mass of the structure shown. Like-named read-outs stand apart in the source and are kept apart here. *1 amine or outer side, *2 acyl side, *3 side chain or, on linkers, in order; H or OH if unused. Where a SMILES comes first, the peptide text is derived from it. Side-chain parts run from the residue outwards. [ ]: non-standard residue; d: D form. The star is where a group is joined. γGlu = O=C(O)[C@H](CCC(=O)[*:2])N[*:1]; Stearoyl = CCCCCCCCCCCCCCCCCC(=O)*; Palmitoyl = CCCCCCCCCCCCCCCC(=O)*; Aib = CC(C)(N)C(=O)O

Assays:
[1] = Solubility testing in buffer (HPLC-UV of supernatant); assay type: physicochemical
[2] = target: T1, human glucagon receptor (hGLUC R) (Homo sapiens, UniProt P47871); experiment: cAMP response of HEK-293 cells stably expressing human glucagon receptor (HTRF); assay type: cell-based; conditions: Table 7; cAMP formation
T1 construct: expressed in transfected cells
T1 sequence (P47871 26-477): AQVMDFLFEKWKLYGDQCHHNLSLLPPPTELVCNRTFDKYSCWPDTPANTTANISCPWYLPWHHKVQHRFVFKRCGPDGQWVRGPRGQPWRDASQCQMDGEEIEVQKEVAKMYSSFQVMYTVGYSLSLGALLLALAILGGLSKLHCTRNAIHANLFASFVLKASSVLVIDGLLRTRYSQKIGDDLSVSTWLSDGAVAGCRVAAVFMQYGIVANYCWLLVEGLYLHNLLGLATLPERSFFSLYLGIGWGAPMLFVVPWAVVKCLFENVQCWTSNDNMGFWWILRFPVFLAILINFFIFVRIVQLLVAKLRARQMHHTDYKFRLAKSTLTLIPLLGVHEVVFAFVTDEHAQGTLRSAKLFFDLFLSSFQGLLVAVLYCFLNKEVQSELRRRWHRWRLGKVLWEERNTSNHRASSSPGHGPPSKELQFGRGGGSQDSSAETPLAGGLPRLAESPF
Summary of the method: (§1)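 Stably transfected HEK-293 cells, accutase-harvested; assay buffer 1×HBSS/20 mM HEPES/0.1% BSA/2 mM IBMX; 400000 cells/ml; compound 30 min, RT; cAMP by HTRF kit.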

[3] = target: T2, human GLP-1 receptor (hGLP-1 R) (Homo sapiens, UniProt P43220); experiment: cAMP response of HEK-293 cells stably expressing human GLP-1 receptor (HTRF); assay type: cell-based; conditions: Table 7; cAMP formation
T2 construct: expressed in transfected cells
T2 sequence (P43220 24-463): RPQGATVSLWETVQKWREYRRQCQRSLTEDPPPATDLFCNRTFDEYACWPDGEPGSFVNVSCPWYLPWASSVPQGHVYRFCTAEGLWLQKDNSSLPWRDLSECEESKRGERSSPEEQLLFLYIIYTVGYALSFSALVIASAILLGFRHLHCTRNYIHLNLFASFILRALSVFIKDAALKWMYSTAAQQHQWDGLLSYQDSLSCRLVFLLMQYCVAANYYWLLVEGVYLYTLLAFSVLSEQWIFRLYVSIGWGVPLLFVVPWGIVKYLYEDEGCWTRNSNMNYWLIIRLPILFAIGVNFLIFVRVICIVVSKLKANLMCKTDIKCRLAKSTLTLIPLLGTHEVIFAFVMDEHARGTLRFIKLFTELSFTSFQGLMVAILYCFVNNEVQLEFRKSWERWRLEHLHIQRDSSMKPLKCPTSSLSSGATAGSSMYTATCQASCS
Summary of the method: as §1

[4] = target: T3, human GIP receptor (hGIP R) (Homo sapiens, UniProt P48546); experiment: cAMP response of HEK-293 cells stably expressing human GIP receptor (HTRF); assay type: cell-based; conditions: Table 7; cAMP formation
T3 construct: expressed in transfected cells
T3 sequence (P48546 22-466): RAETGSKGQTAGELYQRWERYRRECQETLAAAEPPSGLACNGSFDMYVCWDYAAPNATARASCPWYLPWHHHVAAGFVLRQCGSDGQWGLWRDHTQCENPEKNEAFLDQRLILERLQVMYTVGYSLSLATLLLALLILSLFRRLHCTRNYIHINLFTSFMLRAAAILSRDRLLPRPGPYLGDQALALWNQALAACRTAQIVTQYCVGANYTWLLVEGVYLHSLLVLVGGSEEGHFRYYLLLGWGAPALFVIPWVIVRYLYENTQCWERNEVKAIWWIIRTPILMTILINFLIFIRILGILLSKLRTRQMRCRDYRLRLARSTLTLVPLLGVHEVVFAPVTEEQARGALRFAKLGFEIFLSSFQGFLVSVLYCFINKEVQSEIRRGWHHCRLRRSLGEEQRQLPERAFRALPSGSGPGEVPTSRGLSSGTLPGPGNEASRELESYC
Summary of the method: as §1

[5] = pH 4.5, target concentration 1.0 mg/mL, read-out: Solubility (pH 4.5)
[6] = pH 7.4, target concentration 1.0 mg/mL, read-out: Solubility (pH 7.4)

CCCCCCCCCCCCCCCC(=O)N[C@@H](CCC(=O)NCCCC[C@H](NC(=O)[C@H](CCC(N)=O)NC(=O)[C@@H](NC(=O)[C@H](CO)NC(=O)[C@H](CC(C)C)NC(=O)[C@H](CC(=O)O)NC(=O)[C@H](CO)NC(=O)[C@@H](NC(=O)[C@H](Cc1ccccc1)NC(=O)[C@@H](NC(=O)CNC(=O)[C@H](CCC(N)=O)NC(=O)C(C)(C)NC(=O)[C@@H](N)Cc1ccc(O)cc1)[C@@H](C)O)[C@@H](C)O)[C@@H](C)CC)C(=O)N[C@@H](CC(=O)O)C(=O)N[C@@H](CCCCN)C(=O)N[C@@H](CCCNC(=N)N)C(=O)N[C@@H](CCCNC(=N)N)C(=O)N[C@@H](C)C(=O)N[C@@H](CCC(N)=O)C(=O)N[C@@H](CC(=O)O)C(=O)N[C@@H](Cc1ccccc1)C(=O)N[C@H](C(=O)N[C@@H](CCC(=O)O)C(=O)N[C@@H](Cc1c[nH]c2ccccc12)C(=O)N[C@@H](CC(C)C)C(=O)N[C@@H](CCCCN)C(=O)N[C@@H](C)C(=O)NCC(=O)NCC(=O)N1CCC[C@H]1C(=O)N[C@@H](CO)C(=O)N[C@@H](CO)C(=O)NCC(=O)N[C@@H](C)C(=O)N1CCC[C@H]1C(=O)N1CCC[C@H]1C(=O)N1CCC[C@H]1C(=O)N[C@@H](CO)C(N)=O)[C@@H](C)CC)C(=O)O [SEQ ID NO: 53, Y-Aib-Q-G-T-F-T-S-D-L-S-I-Q-K(yE-x53)-DKRRAQDFIEWLKAGGPSSGAPPPS-NH2] (H-Y[Aib]QGTFTSDLSIQK([γGlu-Palmitoyl])DKRRAQDFIEWLKAGGPSSGAPPPS-NH2)
solubility at 2 h [1, 5]: 932 µg/mL (≈ 203 µM)
solubility at 2 h [1, 6]: 958 µg/mL (≈ 209 µM)
EC50 [2]: 0.0079 nM
EC50 [3]: 0.0136 nM
EC50 [4]: 0.0932 nM

CCCCCCCCCCCCCCCC(=O)N[C@@H](CCC(=O)NCCCC[C@H](NC(=O)[C@H](CCC(N)=O)NC(=O)[C@@H](NC(=O)[C@H](CO)NC(=O)[C@H](CC(C)C)NC(=O)[C@H](CC(=O)O)NC(=O)[C@H](CO)NC(=O)[C@@H](NC(=O)[C@H](Cc1ccccc1)NC(=O)[C@@H](NC(=O)CNC(=O)[C@H](CCC(=O)O)NC(=O)C(C)(C)NC(=O)[C@@H](N)Cc1ccc(O)cc1)[C@@H](C)O)[C@@H](C)O)[C@@H](C)CC)C(=O)N[C@@H](CCC(=O)O)C(=O)N[C@@H](CCC(=O)O)C(=O)N[C@@H](CCCNC(=N)N)C(=O)N[C@@H](C)C(=O)N[C@@H](C)C(=O)N[C@@H](Cc1c[nH]cn1)C(=O)N[C@@H](CCC(=O)O)C(=O)N[C@@H](Cc1ccccc1)C(=O)N[C@H](C(=O)N[C@@H](CCC(=O)O)C(=O)N[C@@H](Cc1c[nH]c2ccccc12)C(=O)N[C@@H](CC(C)C)C(=O)N[C@@H](CCCCN)C(=O)N[C@@H](CCCNC(=N)N)C(=O)NC(C)(C)C(=O)NCC(=O)N1CCC[C@H]1C(=O)N[C@@H](CO)C(=O)N[C@@H](CO)C(=O)NCC(=O)N[C@@H](C)C(=O)N1CCC[C@H]1C(=O)N1CCC[C@H]1C(=O)N1CCC[C@H]1C(=O)N[C@@H](CO)C(N)=O)[C@@H](C)CC)C(=O)O [SEQ ID NO: 37, Y-Aib-E-G-T-F-T-S-D-L-S-I-Q-K(yE-x53)-E-E-R-A-A-H-E-F-I-E-W-L-K-R-Aib-G-P-S-S-G-A-P-P-P-S-NH2]
solubility at 2 h [1, 5]: > 1000 µg/mL
solubility at 2 h [1, 6]: > 1000 µg/mL
EC50 [2]: 12.1 nM
EC50 [3]: 0.0066 nM
EC50 [4]: 0.0121 nM

CCCCCCCCCCCCCCCCCC(=O)N[C@@H](CCC(=O)NCCCC[C@H](NC(=O)[C@H](CCC(N)=O)NC(=O)[C@@H](NC(=O)[C@H](CO)NC(=O)[C@H](CC(C)C)NC(=O)[C@H](CC(=O)O)NC(=O)[C@H](CO)NC(=O)[C@@H](NC(=O)[C@H](Cc1ccccc1)NC(=O)[C@@H](NC(=O)CNC(=O)[C@H](Cc1c[nH]cn1)NC(=O)C(C)(C)NC(=O)[C@@H](N)Cc1ccc(O)cc1)[C@@H](C)O)[C@@H](C)O)[C@@H](C)CC)C(=O)N[C@@H](CCC(=O)O)C(=O)N[C@@H](CCCCN)C(=O)N[C@@H](CCCNC(=N)N)C(=O)N[C@@H](C)C(=O)N[C@@H](C)C(=O)NC(C)(C)C(=O)N[C@@H](CCC(=O)O)C(=O)N[C@@H](Cc1ccccc1)C(=O)N[C@H](C(=O)N[C@@H](CCC(=O)O)C(=O)N[C@@H](Cc1c[nH]c2ccccc12)C(=O)N[C@@H](CC(C)C)C(=O)N[C@@H](CCCCN)C(=O)N[C@@H](CC(N)=O)C(=O)N[C@H](C(=O)NCC(=O)N1CCC[C@H]1C(=O)N[C@@H](CO)C(=O)N[C@@H](CO)C(=O)NCC(=O)N[C@@H](C)C(=O)N1CCC[C@H]1C(=O)N1CCC[C@H]1C(=O)N1CCC[C@H]1C(=O)N[C@@H](CO)C(N)=O)[C@@H](C)O)[C@@H](C)CC)C(=O)O [SEQ ID NO: 18, Y-Aib-H-G-T-F-T-S-D-L-S-I-Q-K(yE-x70)-E-K-R-A-A-Aib-E-F-I-E-W-L-K-N-T-G-P-S-S-G-A-P-P-P-S-NH2] (H-Y[Aib]HGTFTSDLSIQK([γGlu-Stearoyl])EKRAA[Aib]EFIEWLKNTGPSSGAPPPS-NH2)
solubility at 2 h [1, 5]: 966 µg/mL (≈ 209 µM)
solubility at 2 h [1, 6]: 768 µg/mL (≈ 166 µM)
EC50 [2]: 0.0095 nM
EC50 [3]: 0.0183 nM
EC50 [4]: 0.0095 nM

CCCCCCCCCCCCCCCCCC(=O)N[C@@H](CCC(=O)NCCCC[C@H](NC(=O)[C@H](CCC(N)=O)NC(=O)[C@@H](NC(=O)[C@H](CO)NC(=O)[C@H](CC(C)C)NC(=O)[C@H](CC(=O)O)NC(=O)[C@H](CO)NC(=O)[C@@H](NC(=O)[C@H](Cc1ccccc1)NC(=O)[C@@H](NC(=O)CNC(=O)[C@H](CCC(=O)O)NC(=O)C(C)(C)NC(=O)[C@@H](N)Cc1ccc(O)cc1)[C@@H](C)O)[C@@H](C)O)[C@@H](C)CC)C(=O)N[C@@H](CCC(=O)O)C(=O)N[C@@H](CO)C(=O)N[C@@H](CCCCN)C(=O)N[C@@H](C)C(=O)N[C@@H](C)C(=O)N[C@@H](CCC(N)=O)C(=O)N[C@@H](CCC(=O)O)C(=O)N[C@@H](Cc1ccccc1)C(=O)N[C@H](C(=O)N[C@@H](CCC(=O)O)C(=O)N[C@@H](Cc1c[nH]c2ccccc12)C(=O)N[C@@H](CC(C)C)C(=O)N[C@@H](CCCCN)C(=O)N[C@@H](C)C(=O)NCC(=O)NCC(=O)N1CCC[C@H]1C(=O)N[C@@H](CO)C(=O)N[C@@H](CO)C(=O)NCC(=O)N[C@@H](C)C(=O)N1CCC[C@H]1C(=O)N1CCC[C@H]1C(=O)N1CCC[C@H]1C(=O)N[C@@H](CO)C(N)=O)[C@@H](C)CC)C(=O)O [SEQ ID NO: 42, Y-Aib-E-G-T-F-T-S-D-L-S-I-Q-K(yE-x70)-ESKAAQEFIEWLKAGGPSSGAPPPS-NH2] (H-Y[Aib]EGTFTSDLSIQK([γGlu-Stearoyl])ESKAAQEFIEWLKAGGPSSGAPPPS-NH2)
solubility at 2 h [1, 5]: > 1000 µg/mL
solubility at 2 h [1, 6]: 936 µg/mL (≈ 208 µM)
EC50 [2]: 8.47 nM
EC50 [3]: 0.0062 nM
EC50 [4]: 0.0129 nM

CCCCCCCCCCCCCCCC(=O)N[C@@H](CCC(=O)NCCCC[C@H](NC(=O)[C@H](CCC(N)=O)NC(=O)[C@@H](NC(=O)[C@H](CO)NC(=O)[C@H](CC(C)C)NC(=O)[C@H](CC(=O)O)NC(=O)[C@H](CO)NC(=O)[C@@H](NC(=O)[C@H](Cc1ccccc1)NC(=O)[C@@H](NC(=O)CNC(=O)[C@H](CCC(N)=O)NC(=O)C(C)(C)NC(=O)[C@@H](N)Cc1ccc(O)cc1)[C@@H](C)O)[C@@H](C)O)[C@@H](C)CC)C(=O)N[C@@H](CCC(=O)O)C(=O)N[C@@H](CCCCN)C(=O)N[C@@H](CCCNC(=N)N)C(=O)N[C@@H](C)C(=O)N[C@H](C(=O)NC(C)(C)C(=O)N[C@@H](CC(C)C)C(=O)N[C@@H](Cc1ccccc1)C(=O)N[C@H](C(=O)N[C@@H](CCC(=O)O)C(=O)N[C@@H](Cc1c[nH]c2ccccc12)C(=O)N[C@@H](CC(C)C)C(=O)N[C@@H](CCCCN)C(=O)N[C@@H](C)C(=O)NCC(=O)NCC(=O)N1CCC[C@H]1C(=O)N[C@@H](CO)C(=O)N[C@@H](CO)C(=O)NCC(=O)N[C@@H](C)C(=O)N1CCC[C@H]1C(=O)N1CCC[C@H]1C(=O)N1CCC[C@H]1C(=O)N[C@@H](CO)C(N)=O)[C@@H](C)CC)C(C)C)C(=O)O [SEQ ID NO: 24, Y-Aib-Q-G-T-F-T-S-D-L-S-I-Q-K(yE-x53)-E-K-R-A-V-Aib-L-F-I-E-W-L-K-A-G-G-P-S-S-G-A-P-P-P-S-NH2] (H-Y[Aib]QGTFTSDLSIQK([γGlu-Palmitoyl])EKRAV[Aib]LFIEWLKAGGPSSGAPPPS-NH2)
solubility at 2 h [1, 5]: > 1000 µg/mL
solubility at 2 h [1, 6]: 976 µg/mL (≈ 217 µM)
EC50 [2]: 0.284 nM
EC50 [3]: 0.0192 nM
EC50 [4]: 0.0104 nM
